ChEMBL document CHEMBL1275562, “Incidence and characteristics of vancomycin nonsusceptible strains of methicillin-resistant Staphylococcus aureus at Hershey Medical Center” (2008)
Values after ≈ are worked out from the molar mass of the structure shown.

Assays:
Assay type in all cases: functional
[1] = test system: Staphylococcus aureus; assay: Antimicrobial activity against vancomycin-susceptible Staphylococcus aureus SA2089 after 48 hrs by macro Etest method; conditions: SA2089, 48 h
[2] = test system: Staphylococcus aureus; assay: Antimicrobial activity against heterogeneous vancomycin-intermediate Staphylococcus aureus SA618 after 48 hrs by macro Etest method; conditions: SA618, 48 h
[3] = test system: Staphylococcus aureus; assay: Antimicrobial activity against vancomycin-intermediate Staphylococcus aureus SA1287 after 48 hrs by macro Etest method; conditions: SA1287, 48 h
[4] = test system: Staphylococcus aureus; assay: Antimicrobial activity against vancomycin-susceptible Staphylococcus aureus SA662 after 48 hrs by macro Etest method; conditions: SA662, 48 h
[5] = test system: Staphylococcus aureus; assay: Antimicrobial activity against vancomycin-intermediate Staphylococcus aureus SA770 after 48 hrs by macro Etest method; conditions: SA770, 48 h
[6] = test system: Staphylococcus aureus; assay: Antimicrobial activity against heterogeneous vancomycin-intermediate Staphylococcus aureus SA873 after 48 hrs by macro Etest method; conditions: SA873, 48 h
[7] = test system: Staphylococcus aureus; assay: Antimicrobial activity against vancomycin-intermediate Staphylococcus aureus SA1984 after 48 hrs by macro Etest method; conditions: SA1984, 48 h

CC(=O)N[C@@H]1[C@H](Oc2c3cc4cc2Oc2ccc(cc2Cl)[C@@H](O[C@@H]2O[C@@H](CO)[C@@H](O)[C@H](O)[C@@H]2NC(C)=O)[C@@H]2NC(=O)[C@H](NC(=O)[C@@H]4NC(=O)[C@H]4NC(=O)[C@@H](Cc5ccc(c(Cl)c5)O3)NC(=O)[C@H](N)c3ccc(O)c(c3)Oc3cc(O)cc4c3)c3ccc(O)c(c3)-c3c(O[C@H]4O[C@H](CO)[C@@H](O)[C@@H](O)[C@@H]4O)cc(O)cc3[C@@H](C(=O)O)NC2=O)O[C@@H](CO)[C@@H](O)[C@@H]1O
MIC [1]: 12 µg/mL (≈ 6.79 µM)
MIC [2]: 24 µg/mL (≈ 13.6 µM)
MIC [3]: 8 µg/mL (≈ 4.53 µM)
MIC [4]: 12 µg/mL (≈ 6.79 µM)
MIC [5]: 24 µg/mL (≈ 13.6 µM)
MIC [6]: 12 µg/mL (≈ 6.79 µM)
MIC [7]: 8 µg/mL (≈ 4.53 µM)

CN[C@H](CC(C)C)C(=O)N[C@H]1C(=O)N[C@@H](CC(N)=O)C(=O)N[C@H]2C(=O)N[C@H]3C(=O)N[C@H](C(=O)N[C@H](C(=O)O)c4cc(O)cc(O)c4-c4cc3ccc4O)[C@H](O)c3ccc(c(Cl)c3)Oc3cc2cc(c3O[C@@H]2O[C@H](CO)[C@@H](O)[C@H](O)[C@H]2O[C@H]2C[C@](C)(N)[C@H](O)[C@H](C)O2)Oc2ccc(cc2Cl)[C@H]1O [VANCOMYCIN]
MIC [1]: 3 µg/mL (≈ 2.07 µM)
MIC [2]: 3 µg/mL (≈ 2.07 µM)
MIC [5]: 6 µg/mL (≈ 4.14 µM)
MIC [6]: 3 µg/mL (≈ 2.07 µM)
MIC [7]: 6 µg/mL (≈ 4.14 µM)
